Measurements: article PMC4718592, “Identification of Novel HLA-A*24:02-Restricted Epitope Derived from a Homeobox Protein Expressed in Hematological Malignancies” (PLoS ONE, 2016)

Key:
HL60 and PL21 cells = assay: PEPP2 expression after demethylating agent, leukemia cell lines (RT-PCR, quantitative PCR, immunohistochemistry); type: cell-based
PBMNCs from HD = assay: PEPP2 expression after demethylating agent, healthy donor PBMNCs; type: cell-based, human; conditions: PBMCs from healthy donor, 200 nM for 72 hours
PL21 cells [1] = assay: 51Cr release cytotoxicity of PEPP2-specific CTLs against drug-pretreated PL21 cells; conditions: PL21 pretreated for 72 hours
Procedure: (§1) PL21 and HL60 cells and PBMNCs from HD were cultured in AIM-V medium (Life Technologies) supplemented with 10% human serum (Lonza, Walkersville, MD) in 6-well culture plates and 200 nM of 5-aza-2′-deoxycytidine (Sigma-Aldrich) was added every 24 hours for 72 hours.
(§2) The cytotoxic activity of the CTLs was measured using a standard ^51Cr release assay. Target cells were labeled with 50 μCi of ^51Cr (PerkinElmer Inc., Waltham, MA) for 60 min at 37°C. CIR-A24 cells were then incubated with 5 μg/mL of peptide for 1 hour. For the blocking assay, KMS21 cells were treated with mouse anti-HLA class I antibody (w6/32; eBioscience, San Diego, CA) or mouse IgG isotype antibody (eBioscience). The target cells were mixed with effector cells. After 4 hours, supernatants were transferred to LumaPlates (PerkinElmer) and allowed to air dry in a hood overnight. Plates were sealed and counted in MicroBeta® Trilux instrument (PerkinElmer). Percent specific lysis for ^51Cr release was calculated as [(experimental ^51Cr release—spontaneous ^51Cr release) / (maximum ^51Cr release—spontaneous ^51Cr release)] x 100.

[2] = system: PBMNCs from HLA-A*24:02-positive healthy donor; conditions: PBMNCs pretreated for 72 hours, 51Cr release
Procedure: as §1, §2

PL21 cells [3] = conditions: flow cytometry
leukemia cells = assay: Viability of leukemia cells after drug treatment; conditions: data not shown
HLA-A24 [4] = assay: Peptide binding assay on CIR-A24 cells; conditions: 50 μg/mL peptide + 5 μg/mL β2-microglobulin, serum-free media, 24 hours, FITC anti-HLA-A24 staining, MFI with peptide / MFI without peptide, average of the two assays
Procedure: (§3) We assessed the binding ability of candidate peptides to HLA-A24 as described previously. CIR-A24 cells were incubated with 50 μg/mL peptides and 5μg/ mL of β2-microglobulin in serum-free media for 24 hours. After washing with PBS, the expression of HLA-A24 was measured by staining the cells with FITC-conjugated anti-HLA-A24 antibody (Mitsubishi-Kagaku, Tokyo, Japan). We also checked the stability of candidate peptides bound to the HLA-A24 molecule. CIR-A24 cells were incubated with 50 μg/mL peptides and 5 μg/mL of β2-microglobulin in serum-free media for 24 hours, followed by addition of 50 μg/ mL of brefeldin A (Sigma-Aldrich) for 4 hours. The expression of HLA-A24 was detected by staining the cells with FITC-conjugated anti-HLA-A24 antibody (Mitsubishi). MFI (mean fluorescence intensity) ratio was calculated as follows; MFI of CIR-A24 pulsed with each candidate peptide / MFI of CIR-A24 without peptide.

HLA-A24 [5] = assay: Peptide stability assay on CIR-A24 cells (brefeldin A); type: binding; conditions: 50 μg/mL peptide + 5 μg/mL β2-microglobulin, 24 hours, then 50 μg/mL brefeldin A for 4 hours, FITC anti-HLA-A24 staining, MFI with peptide / MFI without peptide, average of the two assays
Procedure: as §3

[6] = system: HLA-A*24:02 positive lymphocytes isolated from healthy donors; assay: Induction of PEPP2 peptide-specific CTLs from PBMCs of healthy donors; type: cell-based, human; conditions: HLA-A*24:02 positive healthy donor lymphocytes stimulated with peptide-pulsed DC and PHA blasts; IFN-γ ELISpot
Procedure: CTLs were generated by in vitro stimulation with peptide-pulsed autologous dendritic cells and phytohemagglutinin (PHA) blasts. Briefly, PBMNCs were isolated from whole blood of HLA-A*24:02-positive HD by Ficoll density gradient centrifugation. Dendritic cells (DC) were generated by isolating CD14^+ cells using a MACS separation system (Miltenyi Biotec, Bergisch Gladbach, Germany). The CD14^+ cells were cultured in AIM-V medium supplemented with 10% human serum, 100 ng/mL of IL-4 (R&D Systems) and 100 ng/mL of GM-CSF (R&D Systems) for 5 days, then 20 ng/mL of TNF-α (R&D Systems) was added to generate DC. PHA blasts were derived from CD14^- cells by culturing in AIM-V medium supplemented with 10% human serum, 100 units of IL-2 and 1μ g/mL of PHA for 2 days. The DC or PHA blasts were pulsed with 50μg/L of peptide at room temperature for 3 hours and then irradiated (mediXtec, Chiba, Japan). On day 0, CD14^- cells were stimulated with irradiated peptide-pulsed DC in AIM-V medium with 10% human serum supplemented with 10 ng/mL of IL-7 (R&D Systems), then 50 ng/mL of IL-2 was added every 2 to 3 days. The cells were stimulated weekly with irradiated peptide-pulsed autologous PHA blasts, then CD3^+CD8^+ cells were purified with immunomagnetic beads (Miltenyi Biotec).
IFN-γ secretion of CTLs in response to target cells was detected using ELISpot assay. Briefly, effector cells were incubated with target cells in plates coated with anti-IFNγ antibody (1-D1K; Mabtech Inc., Cincinnati, OH). After incubation for 20 hours, biotinylated antibody specific for IFN γ (7-B6-1; Mabtech) was added for 2 hours at room temperature and then streptavidin-alkaline phosphatase (Mabtech) was added for 1 hour. To develop spots, nitroblue tetrazolium and 5-bromo-4-chloro-3-indolyl phosphate (Biorad) were added and the color development was stopped by rinsing with distilled water. The resulting spots were counted using a CTL-ImmunoSpot® analyzer (Cellular Technology Ltd., Shaker Heights, OH)

CIR-A24 cells = assay: 51Cr release cytotoxicity assay of PEPP2-specific CTLs against peptide-pulsed cells; type: cell-based
From the text: The target cells were mixed with effector cells.

Row | Molecule | Binding MFI ratio (HLA-A24 [4]) | Stability MFI ratio (HLA-A24 [5]) | also measured
1 | Nc1ncn([C@H]2C[C@H](O)[C@@H](CO)O2)c(=O)n1 [5-aza-2′-deoxycytidine] | – | – | PEPP2 gene expression after treatment (HL60 and PL21 cells; HL60 and PL21, 200 nM for 72 hours, RT-PCR / quantitative PCR): significantly up-regulated; PEPP2 protein expression after treatment (HL60 and PL21 cells; treated vs untreated cells, 200 nM for 72 hours, immunohistochemistry): increased; PEPP2 gene and protein expression after treatment (PBMNCs from HD): did not change; Cytotoxicity of PEPP2-specific CTLs against treated cells compared with non-treated cells (PL21 cells [1]): enhanced cytotoxicity; Recognition of treated normal PBMNCs by PEPP2-specific CTLs [2]: didn’t recognize; HLA-class I expression after treatment (PL21 cells [3]): up-regulated; PD-L1 expression level after treatment (PL21 cells [3]; confirmed by quantitative PCR): slightly up-regulated; Viability of leukemia cells after treatment with the drug (leukemia cells): more than 90%
2 | AFTPIQLQEL [PEPP2^140-149] | 1.363 | 0.851 | Induction of PEPP2-specific CTL [6]: could not induce PEPP2-specific CTL
3 | CSQYMTSSL [PEPP2^7-15] | 1.103 | 1.041 | –
4 | DMNAMVSL [PEPP2^27-35] | 0.936 | 0.831 | –
5 | DYFWDHSHS [PEPP2^231-239] | 0.889 | 0.869 | –
6 | EFGPFPFVI [PEPP2^271-279] | 1.153 | 1.201 | Induction of PEPP2-specific CTL [6]: could induce PEPP2-specific CTL; Lysis of peptide-pulsed C1R-A24 cells by PEPP2-specific CTLs (CIR-A24 cells; 4 hours, targets pulsed with 5 μg/mL peptide): could lyse C1R-A24 cells only when the target cells were pulsed; Dose dependence of recognition by CTLs (CIR-A24 cells; CIR-A24 pulsed with various concentrations of peptide, E/T ratio of 30): peptide dose-dependent
7 | ERIFQREQF [PEPP2^150-158] | 0.747 | 0.690 | –
8 | FTPLQLQEL [PEPP2^141-149] | 0.860 | 0.687 | –
9 | FVIVPSFTF [PEPP2^277-285] | 1.181 | 0.928 | –
10 | GGAGVPGHL [PEPP2^81-89] | 0.852 | 0.785 | –
11 | KWRRHQRAL [PEPP2^188-196, PEPP2-derived candidate peptide …] | 0.772 | 0.714 | –
12 | LQDMNAMVL [PEPP2^25-33] | 0.768 | 0.761 | –
13 | LQLQELERI [PEPP2^144-152] | 0.695 | 0.738 | –
14 | MPPFPPPSL [PEPP2^246-254] | 0.985 | 0.914 | –
15 | PFPPPSLPL [PEPP2^248-256] | 1.069 | 0.926 | –
16 | QCSQYMTSL [PEPP2^6-14] | 0.724 | 0.614 | –
17 | QGTAAGEKL [PEPP2^52-60] | 0.820 | 0.938 | –
18 | QLQELERIF [PEPP2^145-153] | 0.767 | 1.071 | –
19 | QYMTSLLSPA [PEPP2^9-18] | 1.354 | 0.865 | –
20 | QYSRPQGAV [PEPP2^117-125] | 0.882 | 0.977 | –
21 | RALMARNML [PEPP2^194-202] | 0.954 | 0.599 | –
22 | RPQGAVGGL [PEPP2^120-128] | 0.746 | 0.754 | –
23 | SLPLPLMLL [PEPP2^253-261] | 1.277 | 1.103 | Induction of PEPP2-specific CTL [6]: could not induce PEPP2-specific CTL
24 | TYGPVFMCL [EBV, reference compound] | 1.204 | 1.320 | –
25 | VHAFTPLQL [PEPP2^138-146] | 0.992 | 0.748 | –
